Assay results taken from patent US20220162191A1, “SMALL MOLECULE MODULATORS OF IL-17” (LEO PHARMA A/S, priority 2019, published 2022).

These compounds were tested against T1, human IL-17AA (Homo sapiens, UniProt Q16552) (assay: IL-8 release assay in human epithelial keratinocytes adult (HEKa)). Conditions: 3 ng/ml human IL-17AA + 10 ng/ml human TNFalpha, 68-72 h, IL-8 by HTRF, read-out: Rel EC50 L-8 release assay.
T1 construct: host or cells: HEK (human embryonic kidney) cells
T1 sequence (Q16552 24-155) 1: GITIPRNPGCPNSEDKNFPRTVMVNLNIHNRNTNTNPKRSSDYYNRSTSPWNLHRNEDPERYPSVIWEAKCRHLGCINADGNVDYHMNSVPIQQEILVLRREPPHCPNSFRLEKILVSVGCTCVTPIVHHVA
T1 sequence (Q16552 24-155) 2: T1 sequence (Q16552 24-155) 1
Assay type: cell-based
Outline: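 IL-8 secretion, quantified by HTRF (665/620 nm) as percent of controls, served as the readout after 68–72 h culture of HEKa cells with compound plus IL-17AA (3 ng/ml final) and TNF-alpha (10 ng/ml final). Four-parameter logistic curves gave relative IC50 and Emax.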
An EC50 of 100 to 1000 nM was found for `Cc1cc(-c2ccc(Cl)c(CC(NC(=O)c3ccnn3C)C(=O)Nc3ccc(-c4nncn4C)cc3)c2)cc(C)c1C#N` (stereo not shown) [Example 199, N-[1-[[2-chloro-5-(4-cyano-3,5-dimethyl-phenyl)phenyl]methyl]-2-[4-(4-methyl-1,2,4-triazol-3-yl)anilino]-2-oxo-ethyl]-2-methyl-pyrazole-3-carboxamide] in this work.
`Cc1n[nH]c(C)c1-c1ccc(NC(=O)[C@H](Cc2cc(-c3cnn(C(C)(C)C)c3)ccc2Cl)NC(=O)c2ccnn2C)cc1` [Example 200, N-[(1S)-1-[[5-(1-tert-butylpyrazol-4-yl)-2-chloro-phenyl]methyl]-2-[4-(3,5-dimethyl-1H-pyrazol-4-yl)anilino]-2-oxo-ethyl]-2-methyl-pyrazole-3-carboxamide] was tested, and the EC50 was < 100 nM.
An EC50 of 100 to 1000 nM was found for `Cc1ncn(C)c1-c1ccc(NC(=O)[C@H](Cc2cc(-c3ccc(=O)n(C(C)C)c3)ccc2Cl)NC(=O)OC2CC2)cc1` [Example 201, cyclopropyl N-[(1S)-1-[[2-chloro-5-(1-isopropyl-6-oxo-3-pyridyl)phenyl]methyl]-2-[4-(3,5-dimethylimidazol-4-yl)anilino]-2-oxo-ethyl]carbamate] in this work.
An EC50 of 100 to 1000 nM was found for `CC(C)c1cc(-c2ccc(Cl)c(CC(NC(=O)c3ccnn3C)C(=O)Nc3ccc(-c4nncn4C)cc3)c2)ccc1C#N` (stereo not shown) [Example 202, N-[1-[[2-chloro-5-(4-cyano-3-isopropyl-phenyl)phenyl]methyl]-2-[4-(4-methyl-1,2,4-triazol-3-yl)anilino]-2-oxo-ethyl]-2-methyl-pyrazole-3-carboxamide] in this work.
An EC50 of 100 to 1000 nM was found for `Cc1ncn(C)c1-c1ccc(NC(=O)[C@H](Cc2cc(-c3cccc(C(C)(C)N)c3)ccc2Cl)NC(=O)c2ccnn2C)cc1` [Example 203, N-[(1S)-1-[[5-[3-(1-amino-1-methyl-ethyl)phenyl]-2-chloro-phenyl]methyl]-2-[4-(3,5-dimethylimidazol-4-yl)anilino]-2-oxo-ethyl]-2-methyl-pyrazole-3-carboxamide] in this work.
An EC50 of 100 to 1000 nM was found for `Cc1ncn(C)c1-c1ccc(NC(=O)[C@H](Cc2cc(-c3cnn(C(C)(C)C#N)c3)ccc2Cl)NC(=O)c2ccnn2C)cc1` [Example 204, N-[(1S)-1-[[2-chloro-5-[1-(1-cyano-1-methyl-ethyl)pyrazol-4-yl]phenyl]methyl]-2-[4-(3,5-dimethylimidazol-4-yl)anilino]-2-oxo-ethyl]-2-methyl-pyrazole-3-carboxamide] in this work.
An EC50 of 100 to 1000 nM was found for `CC(C)c1cc(-c2ccc(Cl)c(C[C@H](NC(=O)c3ccnn3C)C(=O)Nc3ccc(-c4cncn4C)cc3)c2)ncn1` [Example 205, N-[(1S)-1-[[2-chloro-5-(6-isopropylpyrimidin-4-yl)phenyl]methyl]-2-[4-(3-methylimidazol-4-yl)anilino]-2-oxo-ethyl]-2-methyl-pyrazole-3-carboxamide] in this work.
An EC50 of 100 to 1000 nM was found for `CN1CCN(c2cc(-c3ccc(Cl)c(C[C@H](NC(=O)c4ccnn4C)C(=O)Nc4ccc(-c5cncn5C)cc4)c3)ccn2)CC1` [Example 206, N-[(1S)-1-[[2-chloro-5-[2-(4-methylpiperazin-1-yl)-4-pyridyl]phenyl]methyl]-2-[4-(3-methylimidazol-4-yl)anilino]-2-oxo-ethyl]-2-methyl-pyrazole-3-carboxamide] in this work.
`C[C@@H]1CNCCN1c1cc(-c2ccc(Cl)c(C[C@H](NC(=O)c3ccnn3C)C(=O)Nc3ccc(-c4cncn4C)cc3)c2)ccn1` [Example 207, N-[(1S)-1-[[2-chloro-5-[2-[(2R)-2-methylpiperazin-1-yl]-4-pyridyl]phenyl]methyl]-2-[4-(3-methylimidazol-4-yl)anilino]-2-oxo-ethyl]-2-methyl-pyrazole-3-carboxamide] was tested, and the EC50 was < 100 nM.
An EC50 of 100 to 1000 nM was found for `C[C@H]1CNCCN1c1cc(-c2ccc(Cl)c(C[C@H](NC(=O)c3ccnn3C)C(=O)Nc3ccc(-c4cncn4C)cc3)c2)ccn1` [Example 208, N-[(1S)-1-[[2-chloro-5-[2-[(2S)-2-methylpiperazin-1-yl]-4-pyridyl]phenyl]methyl]-2-[4-(3-methylimidazol-4-yl)anilino]-2-oxo-ethyl]-2-methyl-pyrazole-3-carboxamide] in this work.
